Measurements taken from patent US8889666B2, “Quinolyl pyrrolo pyrimidyl condensed-ring compound and salt thereof” (Taiho Pharmaceutical Co., Ltd., priority 2012, dated 2014).

Legend:
Assay type in all cases: biochemical
EGFR (L858R) = molecular target: T1, EGFR (L858R) (Homo sapiens, UniProt P00533, L858R); assay: EGFR (L858R) kinase inhibitory activity (in vitro); conditions: recombinant human protein, ATP 4 μM
T1 construct: purchased Carna Biosciences, Inc
Description: (§1) The measurement method was as follows. The compounds I-1, I-2, I-3, I-4, I-5, I-6, I-7, I-8, and I-9 were each dissolved in dimethylsulfoxide (DMSO), and then each serially diluted with DMSO. Next, the EGFR (T790M/L858R) protein, substrate peptide (final concentration: 250 nM), magnesium chloride (final concentration: 10 mM), manganese chloride (final concentration: 10 mM), ATP (final concentration: 1 μM), and the diluted DMSO solution of each compound (final concentration of DMSO: 2.5%) were added to a kinase reaction buffer (Carna Biosciences, Inc.), and the mixture was incubated at 25° C. for 120 minutes for kinase reaction. EDTA was added thereto to a final concentration of 24 mM to thereby terminate the reaction. Then, a detection solution containing europium (Eu)-labeled anti-phosphorylated tyrosine antibody PT66 (PerkinElmer) and SureLight APC-SA (PerkinElmer) was added, and the resulting mixture was allowed to stand at room temperature for 2 hours or more. Finally, the intensity of fluorescence under the excitation light with a wavelength of 337 nm was measured by a PHERAstar FS (BMG LABTECH) at two wavelengths of 620 nm and 665 nm. The level of phosphorylation of each test sample was calculated from the fluorescence intensity ratio of the two wavelengths in DMSO control and in the test sample, and the compound concentration at which phosphorylation was inhibited by 50% was determined as the IC50 value (nM) of each compound.
3) Measurement of EGFR (L858R) Kinase Inhibitory Activity
The inhibitory activities of the compounds I-1, I-2, I-3, I-4, I-5, I-6, I-7, I-8, and I-9 for EGFR (L858R) kinase were measured.
(§2) The materials were as follows. The EGFR (L858R) was a purified recombinant human EGFR (L858R) protein purchased from Carna Biosciences, Inc. The final concentration of ATP was 4 μM. As for other conditions, the same materials and methods as those used in the measurement of EGFR (T790M/L858R) kinase inhibitory activity were used to determine the IC50 value (nM) of each compound.

EGFR (d746-750) = molecular target: T2, EGFR (d746-750) (Homo sapiens, UniProt P00533, DEL746-750); assay: EGFR (d746-750) kinase inhibitory activity (in vitro); conditions: recombinant human protein, ATP 5 μM, 90 minutes
T2 construct: purchased Carna Biosciences, Inc
T2 sequence (P00533 with tags, fused parts or gaps DEL746-750 limits assumed): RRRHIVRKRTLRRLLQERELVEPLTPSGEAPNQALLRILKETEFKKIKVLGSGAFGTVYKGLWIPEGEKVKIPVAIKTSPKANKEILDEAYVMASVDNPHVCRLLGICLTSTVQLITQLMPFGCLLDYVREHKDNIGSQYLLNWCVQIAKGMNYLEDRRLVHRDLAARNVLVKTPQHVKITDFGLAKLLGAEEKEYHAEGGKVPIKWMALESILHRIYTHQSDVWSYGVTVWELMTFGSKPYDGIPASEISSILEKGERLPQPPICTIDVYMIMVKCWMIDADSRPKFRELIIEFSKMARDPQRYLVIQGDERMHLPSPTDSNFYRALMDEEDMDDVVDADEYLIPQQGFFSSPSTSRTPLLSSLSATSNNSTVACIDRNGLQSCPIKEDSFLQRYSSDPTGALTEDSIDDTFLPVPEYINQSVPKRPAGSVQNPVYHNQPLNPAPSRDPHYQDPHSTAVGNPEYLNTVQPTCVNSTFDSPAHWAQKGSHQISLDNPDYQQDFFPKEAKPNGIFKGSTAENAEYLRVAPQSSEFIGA
Description: as §1
4) Measurement of EGFR (d746-750) Kinase Inhibitory Activity
The inhibitory activities of the compounds I-1, I-2, I-3, I-4, I-5, I-6, I-7, I-8, and I-9 for EGFR (d746-750) kinase activity were measured.
as §2, with “(d746-750)” for “(L858R)”, “5” for “4”, “μM. The incubation time for the kinase reaction was 90 minutes.” for “μM.”

EGFR (d746-750/T790M) = molecular target: T3, EGFR (d746-750/T790M) (Homo sapiens, UniProt P00533, DEL746-750/T790M); assay: EGFR (d746-750/T790M) kinase inhibitory activity (in vitro); conditions: recombinant human protein, ATP 1.5 μM
T3 construct: purchased Carna Biosciences, Inc
T3 sequence (P00533 with tags, fused parts or gaps DEL746-750/T790M limits assumed): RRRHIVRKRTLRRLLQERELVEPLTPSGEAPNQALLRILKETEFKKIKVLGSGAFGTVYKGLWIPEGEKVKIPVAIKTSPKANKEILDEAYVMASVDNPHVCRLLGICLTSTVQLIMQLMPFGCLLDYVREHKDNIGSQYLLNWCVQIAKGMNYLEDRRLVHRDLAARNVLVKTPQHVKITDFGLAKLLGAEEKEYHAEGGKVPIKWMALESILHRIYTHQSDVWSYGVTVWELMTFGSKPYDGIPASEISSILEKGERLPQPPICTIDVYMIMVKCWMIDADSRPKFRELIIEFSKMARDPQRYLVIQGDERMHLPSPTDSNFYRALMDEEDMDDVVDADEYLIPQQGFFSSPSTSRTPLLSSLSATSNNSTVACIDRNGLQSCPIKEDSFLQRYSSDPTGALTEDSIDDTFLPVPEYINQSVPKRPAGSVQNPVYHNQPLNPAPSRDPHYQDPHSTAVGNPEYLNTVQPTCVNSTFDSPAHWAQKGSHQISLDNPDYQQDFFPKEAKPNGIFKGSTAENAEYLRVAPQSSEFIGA
Description: as §1
2) Measurement of EGFR (d746-750/T790M) Kinase Inhibitory Activity
The inhibitory activities of the compounds I-1, I-2, I-3, I-4, I-5, I-6, I-7, I-8, and I-9 for EGFR (d746-750/T790M) kinase were measured.
as §2, with “(d746-750/T790M)” for “(L858R)”, “1.5” for “4”

EGFR (WT) = molecular target: T4, EGFR (WT) (Homo sapiens, UniProt P00533); assay: EGFR (WT) kinase inhibitory activity (in vitro); conditions: for IC50: cytoplasmic domain of human EGFR (WT), ATP 4.7 μM, substrate peptide 500 nM; for inhibitory activities for EGFR (WT) compared with the mutant EGFR proteins, in words: summary of Table 1
T4 construct: the cytoplasmic domain of human EGFR (WT); FLAG (N); made in house; host or cells: baculovirus expression system, insect Sf9 cells
T4 sequence (P00533 669-1210 limits assumed): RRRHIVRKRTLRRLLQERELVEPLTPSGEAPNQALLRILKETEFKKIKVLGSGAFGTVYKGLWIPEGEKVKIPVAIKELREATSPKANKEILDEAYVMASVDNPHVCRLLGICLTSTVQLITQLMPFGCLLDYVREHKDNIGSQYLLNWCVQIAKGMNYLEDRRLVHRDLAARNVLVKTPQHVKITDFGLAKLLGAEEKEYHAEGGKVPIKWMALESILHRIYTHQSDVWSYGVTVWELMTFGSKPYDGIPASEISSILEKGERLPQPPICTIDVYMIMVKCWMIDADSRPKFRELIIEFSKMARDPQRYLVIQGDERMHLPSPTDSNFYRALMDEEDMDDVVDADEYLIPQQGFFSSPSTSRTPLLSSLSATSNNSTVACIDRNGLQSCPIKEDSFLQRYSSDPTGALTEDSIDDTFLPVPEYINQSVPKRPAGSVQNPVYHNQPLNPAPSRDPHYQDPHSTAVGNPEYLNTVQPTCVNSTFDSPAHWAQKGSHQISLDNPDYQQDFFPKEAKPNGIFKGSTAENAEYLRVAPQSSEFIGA
Description: as §1
The inhibitory activities of the compounds I-1, I-2, I-3, I-4, I-5, I-6, I-7, I-8, and I-9 on EGFR (WT) kinase were measured.
The materials were as follows. As the EGFR (WT), the cytoplasmic domain of human EGFR (WT) in which a FLAG tag was fused to the N-terminus was expressed in a baculovirus expression system using insect Sf9 cells, and purified with anti-FLAG antibody agarose (Sigma-Aldrich). The final concentration of the substrate peptide was 500 nM, and the final concentration of ATP was 4.7 μM. As for other conditions, the same materials and methods as those used in the measurement of EGFR (T790M/L858R) kinase inhibitory activity were used to determine the IC50 value (nM) of each compound.

EGFR (T790M/L858R) = molecular target: T5, EGFR (T790M/L858R) (Homo sapiens, UniProt P00533, L858R/T790M); assay: EGFR (T790M/L858R) kinase inhibitory activity (in vitro); conditions: for IC50: recombinant human protein, ATP 1 μM, 120 minutes; for inhibitory activities for EGFR (L858R), EGFR (d746-750), EGFR (T790M/L858R) and EGFR (d746-750/T790M), in words: summary of Table 1, all four mutant kinases
T5 construct: purchased Carna Biosciences, Inc
T5 sequence (P00533 25-1210 T790M/L858R): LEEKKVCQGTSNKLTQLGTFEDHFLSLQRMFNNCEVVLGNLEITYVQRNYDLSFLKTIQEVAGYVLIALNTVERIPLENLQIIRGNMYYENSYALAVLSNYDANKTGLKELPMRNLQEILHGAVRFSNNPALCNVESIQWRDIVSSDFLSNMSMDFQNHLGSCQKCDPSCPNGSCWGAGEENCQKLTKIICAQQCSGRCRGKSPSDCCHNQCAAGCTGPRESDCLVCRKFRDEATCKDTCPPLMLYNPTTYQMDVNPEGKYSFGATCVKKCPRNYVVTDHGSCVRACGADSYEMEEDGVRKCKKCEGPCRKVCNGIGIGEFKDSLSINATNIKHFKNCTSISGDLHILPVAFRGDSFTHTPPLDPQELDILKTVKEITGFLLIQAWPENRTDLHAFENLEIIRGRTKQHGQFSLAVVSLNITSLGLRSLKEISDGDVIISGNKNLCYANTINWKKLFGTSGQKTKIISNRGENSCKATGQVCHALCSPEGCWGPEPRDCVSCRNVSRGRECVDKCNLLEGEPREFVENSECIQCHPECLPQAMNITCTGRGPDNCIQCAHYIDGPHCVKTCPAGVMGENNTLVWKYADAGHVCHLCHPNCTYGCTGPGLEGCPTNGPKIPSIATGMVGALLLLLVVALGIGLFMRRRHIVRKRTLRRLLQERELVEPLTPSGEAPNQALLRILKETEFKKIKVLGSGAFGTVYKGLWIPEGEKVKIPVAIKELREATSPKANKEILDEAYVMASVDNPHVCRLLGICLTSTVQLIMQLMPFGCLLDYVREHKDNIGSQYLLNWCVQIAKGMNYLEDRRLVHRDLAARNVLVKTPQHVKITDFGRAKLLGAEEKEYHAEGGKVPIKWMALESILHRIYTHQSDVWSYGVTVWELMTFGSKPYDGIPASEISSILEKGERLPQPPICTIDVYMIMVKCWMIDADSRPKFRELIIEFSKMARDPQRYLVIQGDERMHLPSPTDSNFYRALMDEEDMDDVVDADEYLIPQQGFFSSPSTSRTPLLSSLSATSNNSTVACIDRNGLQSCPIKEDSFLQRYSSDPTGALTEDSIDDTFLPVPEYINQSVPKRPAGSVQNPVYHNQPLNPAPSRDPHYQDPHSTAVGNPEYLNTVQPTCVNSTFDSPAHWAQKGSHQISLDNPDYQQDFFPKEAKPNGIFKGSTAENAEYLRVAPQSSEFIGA
Description: 1) Measurement of EGFR (T790M/L858R) Kinase Inhibitory Activity
The inhibitory activities of the compounds I-1, I-2, I-3, I-4, I-5, I-6, I-7, I-8, and I-9 for EGFR (T790M/L858R) kinase were measured.
The materials were as follows. The substrate peptide was a biotinylated peptide (biotin-EEPLYWSFPAKKK) synthesized by reference to the amino acid sequence of FL-Peptide 22 (a reagent for LabChip® Series; Caliper Life Sciences, Inc.). The EGFR (T790M/L858R) was a purified recombinant human EGFR (T790M/L858R) protein purchased from Carna Biosciences, Inc.
as §1

T1 sequence (P00533 25-1210 L858R): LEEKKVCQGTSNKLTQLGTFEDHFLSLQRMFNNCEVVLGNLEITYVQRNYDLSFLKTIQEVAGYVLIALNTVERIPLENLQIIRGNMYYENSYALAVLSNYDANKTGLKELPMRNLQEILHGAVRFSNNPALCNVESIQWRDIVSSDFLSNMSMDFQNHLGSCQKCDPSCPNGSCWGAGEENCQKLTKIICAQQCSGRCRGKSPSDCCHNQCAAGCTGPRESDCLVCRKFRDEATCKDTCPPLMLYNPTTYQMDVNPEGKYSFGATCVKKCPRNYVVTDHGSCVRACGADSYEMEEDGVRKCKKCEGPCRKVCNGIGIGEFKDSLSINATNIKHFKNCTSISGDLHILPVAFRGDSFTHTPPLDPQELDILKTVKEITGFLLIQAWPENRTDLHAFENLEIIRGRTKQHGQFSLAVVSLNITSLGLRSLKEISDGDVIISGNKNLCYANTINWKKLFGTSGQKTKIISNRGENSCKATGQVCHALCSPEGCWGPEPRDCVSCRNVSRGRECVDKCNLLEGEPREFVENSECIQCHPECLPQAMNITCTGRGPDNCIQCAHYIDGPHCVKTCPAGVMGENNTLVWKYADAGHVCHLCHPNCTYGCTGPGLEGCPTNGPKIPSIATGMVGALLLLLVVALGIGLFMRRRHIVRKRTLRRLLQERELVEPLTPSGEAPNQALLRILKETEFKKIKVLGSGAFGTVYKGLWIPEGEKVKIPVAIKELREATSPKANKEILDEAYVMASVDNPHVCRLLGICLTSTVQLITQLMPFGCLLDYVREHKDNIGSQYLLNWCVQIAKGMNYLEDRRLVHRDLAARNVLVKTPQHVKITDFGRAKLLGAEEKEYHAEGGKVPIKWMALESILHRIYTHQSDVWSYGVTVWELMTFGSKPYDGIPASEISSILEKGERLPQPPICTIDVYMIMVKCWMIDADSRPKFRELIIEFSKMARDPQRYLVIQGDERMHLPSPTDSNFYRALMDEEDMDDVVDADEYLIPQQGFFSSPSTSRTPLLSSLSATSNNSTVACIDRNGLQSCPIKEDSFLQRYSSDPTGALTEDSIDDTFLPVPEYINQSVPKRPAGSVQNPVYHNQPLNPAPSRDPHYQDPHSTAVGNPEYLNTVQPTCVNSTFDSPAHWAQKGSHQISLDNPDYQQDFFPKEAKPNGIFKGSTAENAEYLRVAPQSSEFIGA

SMILES | IC50 (EGFR (L858R)) [nM] | IC50 (EGFR (d746-750)) [nM] | IC50 (EGFR (d746-750/T790M)) [nM] | IC50 (EGFR (WT)) [nM] | inhibitory activities for EGFR (WT) compared with the mutant EGFR proteins, in words (EGFR (WT)) | IC50 (EGFR (T790M/L858R)) [nM] | inhibitory activities for EGFR (L858R), EGFR (d746-750), EGFR (T790M/L858R) and EGFR (d746-750/T790M), in words (EGFR (T790M/L858R)) | inhibitory activity for these EGFR kinases, in words (EGFR (T790M/L858R); all EGFR kinases of Test Example 1)
C=CC(=O)N[C@@H]1CCc2c(-c3cnc4ccccc4c3)c3c(N)ncnc3n2C1 (single isomer, unassigned) [Compound I-1] | 14 | 13 | 2.8 | 170 | lower than those for the above mutant EGFR proteins | 5.3 | potent inhibitory activities | –
Nc1ncnc2c1c(-c1cccc(NC(=O)c3ccccc3)c1)c1n2CCCC1 [Comp. Ex. 1, N-(3-(4-amino-6,7,8,9-tetrahydropyrimido[5,4-b]indolizin-5-yl)phenyl)benzamide, reference compound] | > 5000 | 1500 | > 5000 | > 5000 | – | > 5000 | – | almost no inhibitory activity
CN(C)C/C=C/C(=O)NC1CCc2c(-c3cnc4ccccc4c3)c3c(N)ncnc3n2C1 (stereo not drawn) [Compound I-4, (E)-N-(4-amino-5-(quinolin-3-yl)-6,7,8,9-tetrahydropyrimido[5,4-b]indolizin-8-yl)-4-(dimethylamino)-2-butenamide] | 12 | 10 | 4.1 | 120 | lower than those for the above mutant EGFR proteins | 6.7 | potent inhibitory activities | –
Nc1ncnc2c1c(-c1cnc3ccccc3c1)c1n2C[C@@H](NC(=O)/C=C/Cl)CC1 [Compound I-5, (S,E)-N-(4-amino-5-(quinolin-3-yl)-6,7,8,9-tetrahydropyrimido[5,4-b]indolizin-8-yl)-3-chloroacrylamide] | 0.7 | 0.5 | 0.3 | 5.9 | lower than those for the above mutant EGFR proteins | 0.4 | potent inhibitory activities | –
Nc1ncnc2c1c(-c1cnc3ccccc3c1)c1n2C[C@@H](NC(=O)/C=C\Cl)CC1 [Compound I-6, (S,Z)—N-(4-amino-5-(quinolin-3-yl)-6,7,8,9-tetrahydropyrimido[5,4-b]indolizin-8-yl)-3-chloroacrylamide] | 2.9 | 3.6 | 1.2 | 41 | lower than those for the above mutant EGFR proteins | 1.2 | potent inhibitory activities | –
C=CC(=O)N[C@H]1CCc2c(-c3cnc4ccccc4c3)c3c(N)ncnc3n2CC1 [Compound I-7, (S)-N-(4-amino-5-(quinolin-3-yl)-7,8,9,10-tetrahydro-6H-pyrimido[5′,4′:4,5]pyrrolo[1,2-a]azepin-8-yl)acrylamide] | 2.9 | 1.8 | 0.5 | 33 | lower than those for the above mutant EGFR proteins | 1.4 | potent inhibitory activities | –
C=CC(=O)N[C@H]1CCCc2c(-c3cnc4ccccc4c3)c3c(N)ncnc3n2C1 [Compound I-8, (S)-N-(4-amino-5-(quinolin-3-yl)-7,8,9,10-tetrahydro-6H-pyrimido[5′,4′:4,5]pyrrolo[1,2-a]azepin-9-yl)acrylamide] | 41 | 20 | 13 | 490 | lower than those for the above mutant EGFR proteins | 18 | potent inhibitory activities | –
